How the values were obtained:
[1] = biological target: T1, IP3 binding domain (IBD, amino acid residues 1-885) of human IP3 receptor type 1 (Homo sapiens, UniProt Q14643); test: Surface plasmon resonance competitive binding assay on Compound 1-immobilized sensor tip; conditions: for Kd: SPR competitive assay, Compound 2b re-assayed at IBD 1.76 nM; for Kd / binding of IBD to a Compound 1-immobilized tip: IBD 52.8 nM; for binding of IBD to a Compound 1-immobilized tip: competitive assay, FIG. 1B; for affinity relative to that of IP3: ratio of affinity to IBD versus IP3 (Table 1); for non-specific binding to the IP3 receptor in the competitive assay: IBD 1.76 nM, FIG. 1C
T1 construct: glutathione S-transferase (GST), joined by linker Leu-Val-Pro-Arg-Gly-Ser (N); His tag, joined by linker Leu-Val-Pro-Arg-Gly-Ser (C); made in house; host or cells: Escherichia coli BL-21 (DE3), vector pGEX2T
T1 sequence (Q14643 1-885 isoform Q14643-4): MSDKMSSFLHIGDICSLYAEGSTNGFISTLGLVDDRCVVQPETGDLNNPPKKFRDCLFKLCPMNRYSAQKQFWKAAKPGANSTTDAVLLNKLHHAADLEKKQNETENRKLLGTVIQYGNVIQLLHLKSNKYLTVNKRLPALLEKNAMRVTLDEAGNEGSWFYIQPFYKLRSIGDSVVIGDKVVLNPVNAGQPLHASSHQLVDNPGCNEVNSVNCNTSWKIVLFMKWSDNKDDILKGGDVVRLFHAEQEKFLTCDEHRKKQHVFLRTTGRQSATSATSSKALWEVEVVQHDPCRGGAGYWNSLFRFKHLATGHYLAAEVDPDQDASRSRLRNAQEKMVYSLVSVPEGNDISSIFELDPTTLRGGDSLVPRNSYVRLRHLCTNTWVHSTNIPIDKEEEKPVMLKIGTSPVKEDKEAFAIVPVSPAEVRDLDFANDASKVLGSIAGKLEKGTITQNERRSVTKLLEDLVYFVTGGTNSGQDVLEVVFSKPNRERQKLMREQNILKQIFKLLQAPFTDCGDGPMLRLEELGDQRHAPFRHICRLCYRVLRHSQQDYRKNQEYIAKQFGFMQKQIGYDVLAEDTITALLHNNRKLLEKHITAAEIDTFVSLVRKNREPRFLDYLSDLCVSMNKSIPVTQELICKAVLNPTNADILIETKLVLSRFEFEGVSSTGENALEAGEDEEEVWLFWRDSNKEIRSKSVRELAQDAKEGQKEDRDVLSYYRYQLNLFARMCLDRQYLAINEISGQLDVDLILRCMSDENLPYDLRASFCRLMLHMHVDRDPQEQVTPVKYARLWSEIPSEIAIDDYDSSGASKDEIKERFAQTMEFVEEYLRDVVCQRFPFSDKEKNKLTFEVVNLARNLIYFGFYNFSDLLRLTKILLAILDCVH
Excerpt: (1) Expression and Purification of Human IP3 Receptor Type 1
The IP3 binding domain (IBD, amino acid residues 1-885, Mignery, G. A., et al., EMBO J., 9, 3893, 1990) of human IP3 receptor type 1 (Yamada, N., et al., Biochem. J., 302, 781, 1994) was subcloned in pGEX2T (Amersham Pharmacia) for expression in bacteria. The N-terminus of IBD was fused to glutathione S-transferase using a linker sequence Leu-Val-Pro-Arg-Gly-Ser, whilst the C-terminus of IBD was labeled at His using a linker sequence Leu-Val-Pro-Arg-Gly-Ser. The protein was expressed in Escherichia coli BL-21 (DE3), and a recombinant protein was purified by using a resin on which Ni-NTA was immobilized (Amersham Pharmacia) and a HiTrap NHS-activated affinity column (Amersham Pharmacia) to which Compound 1 was bound. The purity of protein was calculated as 22% based on the result from SDS-PAGE.
(2) Measurement of Surface Plasmon Resonance
Surface plasmon resonance (SPR) was measured by using BIAcore 2000 (Amersham Pharmacia). After activation with NHS and EDC, 10 mM of Compound 1 in 100 mM borate buffer (pH 8.5) was bound to the surface of CM5 sensor tip, and inactivated with ethanolamine. In order to determine dissociation constants of IP3, Compound 1, Compound 2a, and Compound 2b, IBD purified beforehand was dissolved in a mobile phase buffer (10 mM HEPES, 150 mM NaCl, 3.4 mM EDTA and 0.005% Tween20, pH 7.4) together with each of the compounds. After each sample was injected, the tip surface was regenerated with 100 mM NaOH.
IBD bound to the tip in a concentration-dependent manner, however, non-specific binding with BSA (or glutathione S-transferase) was not observed. […] In order to determine affinity of IP3, Compound 1, Compound 2a and Compound 2b to IBD, a competitive assay was performed as follows. IBD (52.8 nM) was mixed with each of the aforementioned compounds at various concentrations. When the mixture was introduced onto the tip, a compound that competed with Compound 1 was […] (FIG. 1B). SPR obtained from this assay was applied to the equation to calculate dissociation constant (Kd) of each compound.
(3) Calculation of Dissociation Constants
For calculation of Kd of each compound, the resulting data plotted in FIGS. 1B and 1C were applied to the formula: 100[1−[X+Y+Kd−{X^2+2X (Kd−Y)+(Kd+Y)^2}^½]/2Y] wherein X and Y are a concentration of each compound and IBD concentration, respectively. […] Therefore, the IBD concentration was lowered to 1.76 nM, and the competitive assay for Compound 2b was performed again (FIG. 1C). The binding assay was carried out under a light condition and under a dark condition to verify that the binding was not affected by light.

IP3 receptor = test: Denaturation of the IP3 receptor by light irradiation: IP3-induced Ca2+ releasing activity in smooth muscle tissue specimen; conditions: guinea pig portal vein smooth muscle, 1 μM compound, 1 μM IP3, FIG. 2C
Description: (1) Preparation of a Tissue Specimen
A strip of smooth muscle tissue prepared from a portal vein of male guinea pigs (weight 200-300 g) was fixed on a stainless steel wire to prepare a tissue specimen.
(2) Measurement of Ca^2+ Releasing Activity
The above specimen was incubated at 35° C. for 3.5 hours in a 40 μM solution of mag-fura-2 AM (Molecular Probes) as a Ca^2+ fluorescent indicator to have the mag-fura-2 AM taken up by the specimen. Subsequently, the specimen was incubated at 35° C. for 1.5 to 2 hours in a 40-60 μM solution of β-escin as a surfactant to remove the mag-fura-2 AM present other than in intracellular organelles.
The specimen was inserted into a glass capillary, and then initial change of fluorescence intensity ratio (fluorescence intensity at Ex. 340 nm, Em.480 nm/fluorescence intensity at Ex. 375 nm, Em. 480 nm, i.e., releasing rate), at addition of various solutions to the specimen, was fitted to an exponential curve to obtain a value as Ca^2+ releasing activity. As the fluorescence photometer, CAF-110 (JASCO) was used. […]
The tissue specimen prepared in the above (1) was added with 1 μM IP3, and its Ca^2+ releasing activity was measured (before irradiation). This specimen was removed from a fluorescence photometer after the measurement, and the inside of a capillary was filled with 1 μM solution of Compound 2b. […]

Row | Molecule | Kd [1] | binding of IBD to a Compound 1-immobilized tip [1] | affinity relative to that of IP3 [1] | non-specific binding to the IP3 receptor in the competitive assay [1] | Ca2+ releasing activity induced by IP3, addition of compound only (no laser irradiation) (IP3 receptor) | Ca2+ releasing activity induced by IP3, addition of compound and laser irradiation (IP3 receptor; 635 nm laser 3 minutes)
1 | NCCCOP(=O)(O)O[C@@H]1[C@H](O)[C@H](O)[C@@H](OP(=O)(O)O)[C@H](OP(=O)(O)O)[C@H]1O [Compound 1] | 1100 nM | inhibited | about ⅙ |  |  | 
2 | CN(C)c1ccc(C(=C2C=CC(=[N+](C)C)C=C2)c2ccc(C(=O)NCCCOP(=O)(O)O[C@@H]3[C@H](O)[C@H](O)[C@@H](OP(=O)(O)O)[C@H](OP(=O)(O)O)[C@H]3O)cc2)cc1 [Compound 2b] | 1.17 nM | inhibited | 167 fold | specifically bound to the IP3 receptor | not reduced | remarkably reduced
3 | O=P(O)(O)O[C@@H]1[C@H](O)[C@H](O)[C@@H](OP(=O)(O)O)[C@H](OP(=O)(O)O)[C@H]1O [IP3, D-Myo-inositol-1,4,5-trisphosphate] | 195 nM | inhibited |  |  |  | 
4 | carboxymalachite green |  |  |  | non-specific binding was not observed |  | 
